The text below walks through data of article PMC10415494, “Ga(III) pyridinecarboxylate complexes: potential analogues of the second generation of therapeutic Ga(III) complexes?” (Journal of Biological Inorganic Chemistry, 2023).

Data set [1] has as its system Escherichia coli (E. coli) CCM 3988. Put plainly: Antimicrobial activity, macrodilution method (growth by A590). Conditions: for IC50: Bacteria, MHB, 37 °C, DMSO max 1.0 vol. %, read-out: IC50 E. coli. In kind it is cell-based. Here is the method: (§1) The antimicrobial activities of gallium(III) complexes GaPic, GaDpic, GaChel, GaCldpic, free ligands (HPic, H2Dpic, H2Chel, H2Cldpic) and positive controls (cefoxitin (C), ampicillin (A) and piperacillin (P)) were evaluated by macrodilution method using G^+ bacteria (Firmicutes) Staphylococcus aureus (S. aureus) CCM 3953 (Czech Collection of Microorganisms), G^− bacteria (γ-proteobacteria) Escherichia coli (E. coli) CCM 3988, Pseudomonas aeruginosa (P. aeruginosa) CCM 1959 (Czech Collection of Microorganisms) and the yeast Candida parapsilosis (C. parapsilosis) ATCC 22019 (American type culture collection). Cultures of bacteria (in Mueller–Hinton broth, MHB) and yeasts (in Sabouraud’s growth medium, SB) were incubated under shaking (250 rpm) at 37 °C. The growth of bacteria and yeasts was evaluated by measuring the absorbance of the growing cultures (A590) until the cultures reached the stationary growth phase. The effects of gallium(III) complexes on the growth of filamentous fungi Rhizopus oryzae (R. oryzae) CCM F-8284, Alternaria alternata (A. alternata) CCM F-128 and Microsporum gypseum (M. gypseum) CCM F-8342 (Czech Collection of Microorganisms) were observed by macrodilution method on solidified potato-dextrose growth medium (PDA). During culturing, the diameters of growing fungal colonies were measured at regular intervals. Briefly, the antimicrobial activity (bacteria and yeasts) gallium(III) complexes/ ligands were added to the microbial culture at the beginning of the cultivation-to the lag phase. Pure gallium(III) complexes/ligands were dissolved in DMSO. The final concentration of DMSO never exceeded 1.0 vol. % neither in control nor treated samples. Concentration of gallium(III) complexes used in experimental work for evaluation of antimicrobial activity was used in the range of 0.05–2 mM, for the free ligands in the range of 0.5–2.0 mM in all experiments. […] The IC50 values were evaluated from toxicity curves. All the obtained results of antimicrobial activity were compared to the activity of Ga(NO3)3.

The subject of data set [2] is Pseudomonas aeruginosa (P. aeruginosa) CCM 1959. The data set is described as above. In kind it is cell-based. The note with it: for IC50: Bacteria, MHB, 37 °C, DMSO max 1.0 vol. %, read-out: IC50 P. aeruginosa. On the procedure: as §1
Data set [3] concerns Staphylococcus aureus (S. aureus) CCM 3953. The data set is described as above. The format is cell-based. Conditions: for IC50: Bacteria, MHB, 37 °C, DMSO max 1.0 vol. %, read-out: IC50 S. aureus. On the procedure:
as §1

The subject of data set [4] is Candida parapsilosis (C. parapsilosis) ATCC 22019. Put plainly: Antimicrobial activity, macrodilution method (yeast, growth by A590). In kind it is cell-based. Conditions: Yeast; Sabouraud's growth medium, 37 °C; read-out: IC50 C. parapsilosis. Here is the method:
as §1

For data set [5], the system named is Alternaria alternata (A. alternata) CCM F-128. Put plainly: Growth of filamentous fungi, macrodilution method on solidified PDA (colony diameter). In kind it is cell-based. Conditions: Filamentous fungi; solidified potato-dextrose growth medium; read-out: IC50 A. alternata. On the procedure:
as §1

The test system of data set [6] is Microsporum gypseum (M. gypseum) CCM F-8342. Described as above. The format is cell-based. Conditions: Filamentous fungi; solidified potato-dextrose growth medium; read-out: IC50 M. gypseum. On the procedure:
as §1

For data set [7], the system named is Rhizopus oryzae (R. oryzae) CCM F-8284. The description is as above. The format is cell-based. Conditions: solidified potato-dextrose growth medium; read-out: IC50 R. oryzae. Here is the method: as §1
Data set [8] relates to A2058 (human metastatic melanoma). Put plainly: MTS antiproliferative assay. On the procedure:
(§2) Cell culture the cell lines A2058 (human metastatic melanoma), BLM (human metastatic melanoma), HCT116 (human colorectal carcinoma), HeLa (human cervical adenocarcinoma), Jurkat (human leukaemic T cell lymphoma). […] Cells were maintained in standard conditions with an atmosphere containing 5% CO2 at 37 °C.
(§3) The antiproliferative activity of Ga(III) complexes GaPic, GaDpic, GaChel, GaCldpic, free ligands (HPic, H2Dpic, H2Chel, H2Cldpic) and cisplatin (cisPt) were evaluated by colorimetric microculture MTS (3-(4,5-dimethylthiazol-2-yl)-5-(3-carboxymethoxyphenyl)-2-(4-sulfophenyl)-2H tetrazolium) assay (Promega, Madison, WI, USA). Cancer and non-cancer cells were seeded at density 5 × 10^3 cells/well in 96-well polystyrene microplates. Twenty-four hours after cell seeding, different concentrations (1.0—100.0 µM) of the compounds were tested. After 72 h of incubation, 10 µL of MTS was added to each well. After an additional 2 h, cell proliferation was evaluated by measuring of absorbance at wavelength 490 nm using the automated Cytation™ 3 Cell Imaging Multi-Mode Reader (Biotek, Winooski, VT, USA). The absorbance of control wells was taken as 100%, and the results were expressed as a percent of untreated control. IC50 values were calculated from MTS analyses.

Data set [9] deals with HCT116 (human colorectal carcinoma). Briefly: MTS antiproliferative assay. Here is the method:
as §2, §3
For orientation: Tetrazolium assays rely on reduction of a dye to a coloured formazan, in cell work by metabolically active cells.

Data set [10] concerns HeLa (human cervical adenocarcinoma). Briefly: MTS antiproliferative assay. Here is the method:
as §2, §3

Data set [11] relates to Jurkat (human leukaemic T cell lymphoma). Briefly: MTS antiproliferative assay. Here is the method:
as §2, §3

Data set [12] relates to MDA-MB-231 (human mammary gland adenocarcinoma). Briefly: MTS antiproliferative assay. On the procedure: as §2, §3
Data set [13] concerns PaTu 8902 (human pancreatic adenocarcinoma). Briefly: MTS antiproliferative assay. On the procedure:
as §2, §3

Data set [14] deals with human dermal fibroblasts (HDF). Put plainly: in vitro. Here is the method:
as §2, §3

Data set [15] can be described thus: Complex stability in biological testing medium by time-dependent 1H NMR. Conditions: 300 K, over 96 h. The format is physicochemical. Here is the method: Nuclear magnetic resonance (NMR) data were collected on a Varian VNMRS 600 spectrometer operating at 599.87 MHz for ^1H. The concentration of all samples was approximately 3 mg/0.6 mL of 1% DMSO-d6/D2O. For comparison, the spectra of pure acids were also measured, while the pH of the solution of acids was adjusted to the same value as the solution of the complexes. The chemical shifts were referenced to the TSP (3-(trimethylsilyl)propionic-2,2,3,3-d4 acid sodium salt) peak (^1H NMR 0.00 ppm). The NMR data were recorded at 300 K, with chemical shifts δ reported in parts per million and coupling constants J in Hertz. All data were analysed using MestReNova 12.0.0 (2017) software. The stability in 1% DMSO-d6/D2O was determined for all samples. […]

How the values of data set [16] were obtained: The stock solution of HPic and H2Dpic was prepared by dissolving in demineralized water (c(ligand) = 0.02 M). The gallium(III) ion solution was prepared from anhydrous gallium(III) nitrate (c(Ga^3+) = 0.05 M) and was standardized by back titration of excess of EDTA with zinc(II). Decarbonated potassium hydroxide solution (approx. 0.2 M) was used as a titrant that was standardized by potassium hydrogen phthalate (c(KHP) = 0.1 M). Standard inert electrolyte of nitric acid was used in all titrations (c(HNO3) = 0.03 M, I(HNO3/KNO3) = 0.1 M). Potentiometric measurements were carried out using a TitroLine 7000 dosage system with a BlueLine combination electrode (SI Analytics) in a glass vessel (5 mL) thermostated at 25 ± 0.1 °C at an ionic strength I(KNO3) = 0.1 M. Inert atmosphere was ensured by a constant flow of a nitrogen gas. Precise calibration of the electrode was carried out by the titration of 0.03 M HNO3 with 0.2 M KOH in the range –log[H^+] = 1.8–12.0, with the pH-meter yielding E values. The relation between E and –log[H^+] is expressed by Eq. (1) where the term E^0 contains the standard potentials of the electrode and the contribution of inert ions to the liquid-junction potential. The value S corresponds to the Nernstian slope, the value of which should be close to the theoretical value, and j1[H^+] and j2[OH^–] = j2Kw/[H^+] are contributions of the H^+ and OH^– ions, respectively, to the liquid-junction potential. The pKw value was 13.78 in Eq. (1).1 E=E^0-S-logH^++j1H^++j2Kw/H^+
The parameters j1 and j2 cause deviation from linear dependence between E and –log[H^+] only in strongly acidic and strongly alkaline solutions. The picolinic and dipicolinic acid protonation constants were determined with ligand concentration 0.004 M. The stability constants in the Ga-HPic and Ga-H2Dpic binary system were determined by the ligand concentrations 0.004 and the Ga^3+ concentration was 0.004, 0.002 and 0.001 M in dependence on the ligand to metal ratio.
The protonation constants β110, β210 are the concentration constants and are defined by β110 = [HL]/ [H][L], β210 = [H2L]/ [H]^2[L] (pK2 = logβ110, pK1 = logβ210- logβ110); the stability constants are defined by βrqp = [HrLqMp]/[H]^r[L]^q[M]^p. The equilibrium constants were obtained by fitting the titration data with OPIUM [23]. The following hydrolysis constants were used for the calculations: βpr = [Mp(OH)r^3−r][H]^r/[M]^p; log β11 = − 2.74; log β12 = − 7.0; log β13 = − 11.96; log β14 = − 15.52 [24].

In brackets after ≈: the same amount, converted by molar mass. Like-named read-outs stand apart in the source and are kept apart here. Bounds are passed on as bounds.

On to `O=[N+]([O-])[O-].O=[N+]([O-])[O-].O=[N+]([O-])[O-].[Ga+3]` [Ga(NO3)3, gallium(III) nitrate], for which the IC50 in data set [1] is > 0.5 mM; in data set [2], > 500 µM; in data set [3], > 0.5 mM; in data set [4], > 0.5 mM; in data set [5] it was > 0.5 mM; in [6], > 0.5 mM. Moreover, the concentration for half-maximal inhibition (IC50) in data set [7] is > 0.5 mM.
As for `O.O.O.O.O.O.O=C([O-])c1cc(O)cc(C(=O)[O-])n1.O=C([O-])c1cc(O)cc(C(=O)[O-])n1.[Ga+3].[Ga+3].[OH-].[OH-]` [GaChel, [Ga(Chel)(H2O)(OH)]2·4H2O], the IC50 is > 2 mM in data set [1]; 500 µM in data set [2]; 2 mM in data set [3]; > 2 mM in [4]; > 2 mM in data set [5]; > 2 mM in data set [6]. In addition, the IC50 is > 2 mM in data set [7]; 415 ± 4 µM in data set [8]; 406 ± 86.8 µM in data set [9]; 1410 ± 155 µM in [10]; 418 ± 100 µM in data set [11]; 199 ± 45.6 µM in [12]. The half-inhibitory concentration (IC50) in data set [13] worked out at 610 ± 54 µM; in [14], 347 ± 25.5 µM. Moreover, the “partial inhibition of E. coli growth” value in data set [1] (concentration not given) is recorded as 9%. Also, in [2] (growth fully inhibited (100%)), the “MIC100 (MIC) P. aeruginosa” value amounted to 1 mM. The “inhibition of S. aureus growth” value in data set [3] (complex at 2 mM) was 50%. For the same compound, the “stability in 1% DMSO-d6/D2O solution” value in data set [15] was “stable”.
`O=C([O-])c1cccc(C(=O)[O-])n1.O=C([O-])c1cccc(C(=O)[O-])n1.[Ga+3].[OH-]` [[Ga(Dpic)2(OH)]^2−]: the “stability constant logβ-121” value in data set [16] is on record as 11.08(4).
As to `O=C([O-])c1cccc(C(=O)[O-])n1.O=C([O-])c1cccc(C(=O)[O-])n1.[Ga+3]` [[Ga(Dpic)2]^−], the “stability constant logβ021” value in [16] is reported as 15.42(9).
Turning to `O=C([O-])c1ccccn1.O=C([O-])c1ccccn1.[Ga+3]` [[Ga(Pic)2]^+], the “stability constant logβ021” value in data set [16] was 16.23(6).
Consider `O=C([O-])c1ccccn1.O=C([O-])c1ccccn1.O=C([O-])c1ccccn1.[Ga+3]` [[Ga(Pic)3]], for which the “stability constant logβ031” value in [16] is reported as 20.86(2).
Take `CO[C@@]1(NC(=O)Cc2cccs2)C(=O)N2C(C(=O)O)=C(COC(N)=O)CS[C@@H]21` [cefoxitin]: the MIC in data set [3] (Staphylococcus aureus, CCM3953, positive control, read-out: MIC100 for S. aureus) amounted to 0.74 µM (≈ 0.316 µg/mL).
On to `N.N.[Cl][Pt][Cl]` [cisPt, cisplatin], for which the IC50 in [8] (read-out: Cytotoxic activity IC50 A2058, MTS, 72 h of incubation) was found to be 17.6 ± 1.2 µM; in data set [9] (read-out: Cytotoxic activity IC50 HCT116, MTS, 72 h of incubation) it was 7.4 ± 0.8 µM; in data set [10] (read-out: Cytotoxic activity IC50 HeLa, MTS, 72 h of incubation) it was 35.4 ± 3.4 µM; in data set [11] (read-out: Cytotoxic activity IC50 Jurkat, MTS, 72 h of incubation), 6.3 ± 0.5 µM; in data set [12] (read-out: Cytotoxic activity IC50 MDA-MB-231, MTS, 72 h of incubation), 7.1 ± 0.3 µM; in data set [13] (read-out: Cytotoxic activity IC50 PaTu 8902, MTS, 72 h of incubation) it was 12.9 ± 0.9 µM. In addition, in data set [14] (read-out: Cytotoxic activity IC50 HDF, MTS, 72 h of incubation), the IC50 turned out to be 40.1 ± 2.8 µM.
For `CCN1CCN(C(=O)N[C@@H](C(=O)N[C@@H]2C(=O)N3[C@@H]2SC(C)(C)[C@@H]3C(=O)O)c2ccccc2)C(=O)C1=O` [piperacillin], the MIC in [2] (Pseudomonas aeruginosa, CCM1959, positive control, read-out: MIC100 for P. aeruginosa) was determined as 5.81 µM (≈ 3.01 µg/mL).

What is called IC50 is the concentration needed to halve the response being measured.
